Assay results reported in patent publication US20120078529A1, “DETERMINING THE SEVERITY OF 5-FLUOROURACIL OVERDOSE” (WELLSTAT THERAPEUTICS CORPORATION, priority 2009, published 2012).
Entries after “also recorded” stand apart in the source; their conditions may differ. Where two headings read alike, the source gives them in different places.

How the values were obtained:
[1] = 5-fluorouracil toxicity severity score calculation; parameters: species or system human; conditions: base ten logarithms, dose in mg, administration rate in mg/hr
Text: This invention provides a method of determining a 5-fluorouracil toxicity severity score for a patient receiving 5-fluorouracil, comprising calculating the square root of the sum of: (a) the square of the logarithm of the dose of 5-fluorouracil administered to the patient; and (b) the square of the logarithm of the administration rate of the 5-fluorouracil to the patient.
The severity score can be represented by the following equation:
Severity Score=[(log Dose)^2+(log Rate)^2]^1/2
Typically the logarithm is a base-ten logarithm (log10):
ti Severity Score=[(log10 Dose)^2+(log10 Rate)^2]^1/2
In accordance with this invention the dose and the dose rate can be expressed in any units, including all units that are conventional for expressing drug doses and dose rates. […] Whether they should receive vistonuridine should be evaluated on a case-by-case basis by the patient's physician. When units other than milligrams and mg/hr are utilized or a power relationship other than log10 is utilized in the calculation, the severity score will have a different numerical value and the skilled artisan can readily calculate the corresponding cut-offs distinguishing among lethal, seriously toxic but nonlethal, and nontoxic, doses. […]

5FU overdose [2] = conditions: cited from earlier work
[3] = cited from earlier work
5FU overdose [4] = assay: Patients overdosed with 5FU treated with vistonuridine as an antidote; format: in vivo, human
Method: Seventeen patients overdosed with 5FU have been treated with vistonuridine as an antidote. Patients received vistonuridine (10 g q6h for 20 doses) beginning 8 to 96 hours after overdose. Data from 13 patients with similar 5FU overdoses provide the time course and outcomes for patients receiving available supportive care without vistonuridine. A severity score, integrating dose and infusion rate, was calculated for all the patients, and this tool could be used by healthcare workers to determine the expected severity and outcome of a 5FU overdose.
Wellstat Therapeutics Corporation was contacted by physicians of patients who had received 5FU overdoses, most due to infusion pump errors. Emergency Investigational New Drug approvals (INDs) were obtained from the U.S. Food and Drug Administration (FDA), and vistonuridine was promptly shipped or couriered to the clinics. Patients received vistonuridine beginning 8 to 96 hours after 5FU.

lethal 5FU overdose = assay: Vistonuridine antidote after lethal 5FU overdose in mice; format: in vivo
Method: Uridine is a specific pharmacologic antidote for 5FU poisoning. It reduces 5FU toxicity when taken up prior to the onset of cell death. However uridine has poor oral bioavailability (about 7%). Vistonuridine (chemical name: 2′,3′,5′-tri-O-acetyluridine) is an oral prodrug of uridine. […] Vistonuridine is rapidly converted to circulating uridine by deacetylation (FIG. 2). It is an effective antidote against 5FU poisoning when administered up to 48 hours or more after a lethal 5FU overdose in mice, and up to 96 hours or more in humans. (See Example 1 below).

[5] = cited from earlier work; remark: listed apart in the source

Question: For `O=c1[nH]cc(F)c(=O)[nH]1` [5FU, 5-Fluorouracil], which “Severity score that indicates a lethal dose” value [1] is on record?
Answer: ≥ 4.5

Question: What about the “Outcome of the 11 literature-reported 5FU overdose cases with predicted death” value (5FU overdose [2]; 11 cases, available supportive care, no vistonuridine) of the same compound?
Answer: die from the overdose

Question: And the “Observed Outcome” value (5FU overdose [2]; individual 5FU overdose patient, best supportive care without vistonuridine)?
Answer: Death; also recorded: Recovered

Question: What about the “Patients receiving 5FU who will develop a toxic reaction” value ([3]; about 275,000 US cancer patients receive 5FU annually, NIH estimate) of the same compound?
Answer: about 3%

Question: What about the “Patients who die each year from 5FU overexposure” value ([3]; human, in vivo) of the same compound?
Answer: more than 1300 patients

Question: For `CC(=O)OC[C@H]1O[C@@H](n2ccc(=O)[nH]c2=O)[C@H](OC(C)=O)[C@@H]1OC(C)=O` [Vistonuridine, 2′,3′,5′-tri-O-acetyluridine], which “Outcome of all 17 overdose patients treated with vistonuridine” value (5FU overdose [4]; 17 patients, most with relatively modest toxicity) is on record?
Answer: recovered fully

Question: And the “Time after 5FU overdose at which the antidote is still effective” value (5FU overdose [4]; humans)?
Answer: ≥ 96 h

Question: And the “Observed Outcome” value (5FU overdose [4]; individual 5FU overdose patient, vistonuridine 10 g q6 hr for 20 doses beginning 8 to 96 hours after the 5FU overdose)?
Answer: Recovered

Question: And the “Time after lethal 5FU overdose at which the antidote is still effective” value (lethal 5FU overdose)?
Answer: ≥ 48 h

Question: For `O=c1ccn([C@@H]2O[C@H](CO)[C@@H](O)[C@H]2O)c(=O)[nH]1` [uridine, Uridine], which Oral bioavailability [5] is on record?
Answer: about 7%
